According to patent US7625713B2, “Process for identifying a ligand that binds to the NEP binding site for the SMR1 pentapeptide” (Institut Pasteur, priority 2000, dated 2009):

How the values were obtained:
[1] = molecular target: T1, NEP (Rattus norvegicus, UniProt P07861); test: Met-enkephalin hydrolysis by rat spinal cord slices and membrane preparations, RP-HPLC analysis; assay type: biochemical; details: 10 μM alone, spinal cord slices, 20 min at 25° C., 10 μM Met-enkephalin
T1 construct: incubations of membrane and fresh tissue slice preparations from nervous tissues; from tissue; host or cells: dorsal spinal cord of male Wistar rats (fresh slices or 100 000 x g membrane fraction)
T1 sequence (P07861 1-750): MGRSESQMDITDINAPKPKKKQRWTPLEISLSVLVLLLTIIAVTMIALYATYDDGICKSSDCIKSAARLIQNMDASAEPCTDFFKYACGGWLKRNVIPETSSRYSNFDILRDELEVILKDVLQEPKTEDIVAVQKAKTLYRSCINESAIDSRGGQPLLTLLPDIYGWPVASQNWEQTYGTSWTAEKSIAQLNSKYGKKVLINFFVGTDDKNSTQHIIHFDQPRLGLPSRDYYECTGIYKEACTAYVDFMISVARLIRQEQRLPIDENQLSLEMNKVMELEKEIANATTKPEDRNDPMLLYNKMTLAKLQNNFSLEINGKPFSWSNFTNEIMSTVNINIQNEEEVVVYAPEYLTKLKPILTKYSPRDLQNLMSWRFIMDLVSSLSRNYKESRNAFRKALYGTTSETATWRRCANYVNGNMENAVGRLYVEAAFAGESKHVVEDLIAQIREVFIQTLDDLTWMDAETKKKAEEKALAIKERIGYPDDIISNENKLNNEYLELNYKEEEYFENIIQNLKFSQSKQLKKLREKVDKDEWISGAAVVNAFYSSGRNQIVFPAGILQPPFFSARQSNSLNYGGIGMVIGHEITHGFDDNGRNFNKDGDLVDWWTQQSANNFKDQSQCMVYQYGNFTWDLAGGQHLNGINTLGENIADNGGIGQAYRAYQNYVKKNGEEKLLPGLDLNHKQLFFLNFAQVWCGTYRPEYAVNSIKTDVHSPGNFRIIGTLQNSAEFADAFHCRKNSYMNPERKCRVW
Method: FIG. 2-B: […] Retention time) recovered after 20 min. incubation at 25° C. with 1 mg fresh tissue slices in a 1 ml final volume of KRBG buffer. The organs are rapidly removed, dissected on ice, freed of nerve fibers and of adipose tissues and then washed in cold oxygenated glucose- and bicarbonate-containing Krebs Ringer (KRBG) solution, whose composition is the following: 120 mM NaCl-5 mM KCl-1.2 mM KH2PO4-27.5 mM NaHCO3-2.6 mM CaCl2-0.67 mM MgSO4-5.9 mM glucose. The slices of tissues are prepared either manually with the aid of a scalpel (1-2 mm thick), or mechanically with the aid of a “Tissue Chopper” (1 mm thick). Slices are then dispersed into reaction tubes where they are subjected to three successive washes in ice-cold oxygenated KRBG. […] The organs dissected out and washed in ice-cold KRBG are homogenized at 4° C. in 10 volumes (vol./wt.) of 50 mM Tris/HCl buffered at pH 7.2, using a Teflon-glass homogenizer (3×5 sec.). […] The metabolism rate of the NEP-sensitive peptides was measured using the both NEP substrates involved in the signaling of the nociceptive response: the neuropeptides Met-enkephalin and Substance P. […] Their identification and relative quantification (peak height) are checked by continuously monitoring the UV absorbance at 254 nm of column outflow. […]

[2] = molecular target: T1, NEP; test: Met-enkephalinase activity of rat spinal cord slices, Met-enkephalin RIA; assay type: biochemical; details: 10 μM, fresh spinal cord tissue, 20 min at 25° C.
Method: FIG. 2-A: […] The organs are rapidly removed, dissected on ice, freed of nerve fibers and of adipose tissues and then washed in cold oxygenated glucose- and bicarbonate-containing Krebs Ringer (KRBG) solution, whose composition is the following: 120 mM NaCl-5 mM KCl-1.2 mM KH2PO4-27.5 mM NaHCO3-2.6 mM CaCl2-0.67 mM MgSO4-5.9 mM glucose. The slices of tissues are prepared either manually with the aid of a scalpel (1-2 mm thick), or mechanically with the aid of a “Tissue Chopper” (1 mm thick). Slices are then dispersed into reaction tubes where they are subjected to three successive washes in ice-cold oxygenated KRBG. […] For the experiments of analysis of the NEP peptidase activity, an ex vivo model using incubations of membrane and fresh tissue slice preparations from nervous tissues that are known to be appropriate for exploring NEP peptidase activity: i.e. the dorsal zone of rat spinal cord, was first developed. The metabolism rate of the NEP-sensitive peptides was measured using the both NEP substrates involved in the signaling of the nociceptive response: the neuropeptides Met-enkephalin and Substance P. […] (NEN, 12.5-25 nM) were used. The objective was to measure the NEP-specific endoproteolysis of these substrates. […] Furthermore, for studying the functional role of […] NO: 2), the reaction was carried out in the presence of the SMR1-peptide alone or combined with specific inhibitors of membrane peptidases which could inactivate the […] […] Herein, a competitive RIA system has been used: the quantity of radioactive antigen bound to the antibody decreases in a manner inversely proportional to the quantity of antigen contained in the standard solution or in the sample. […] The activity of enkephalinase NEP is monitored by quantification of the disappearance of the initial Met-enkephalin substrate. […] The radiolabeled antigen is iodinated Met-enkephalin (^125I-Met-Enk enkephalin) with a specific radioactivity estimated at 3000 Ci/mmol. […] After centrifugation, the bound radioactivity of the precipitate is quantified using a gamma-spectrometer.

[3] = system: male rats; test: Pin pain test; assay type: in vivo, rat
Method: The 3-min test session was performed 5 min after intravenous. rat tail vein administration of sialorphin or its vehicle. Naloxone (0.3 mg per kg body weight) was injected subcutaneously 15 min before sialorphin administration. Time in centre field sector (FIG. 6-C) (central square of the open-field without pin) and activity (FIGS. 6-A and 6-B) in peripheral squares (overlayed with pins) during the 3-min test session. Each value represents the mean±sem of 8 animals per group. […] Control group corresponded to pain response in vehicle-treated rats. 50 μg/kg sialorphin, 100 μg/kg sialorphin, 100 μg/kg sialorphin plus naloxone 0.3 mg/kg.
To extend the insight into the in vivo possible antinociceptive property of sialorphin through enkephalin-degrading enzyme inhibition, its effects were assessed in rat model of pain, i.e. the pin pain test, (Hebert et al. (1999) Physiology & Behavior 67, 99-105) in which the various behavioural parameters of pain responses were recorded with a 3-min cutoff time.
The in vivo activity of sialorphin was tested on the pin pain assay using male rats (350-400 g, Charles Rivers). The experimental device consists in an open-field (45×45×40 cm) which is divided into nine equal squares (150×150 mm), eight of them are peripheral and one is central. The peripheral squares are overlayed with stainless steel pins (2/cm2, length 8 mm and diameter 0.6 mm). The test consisted in placing the rat in the central square of the open-field and recording its different behaviours (cut-off time, 3 min). Two days before the pain test, the rats were familiarised with the experimental device without pins for 20 min, so as to reduce the stress linked to the spatial neophobia. All statistical analyses were carried out using the Statview 5 statistical package.

[4] = naloxone 0.3 mg per kg subcutaneous, prior to sialorphin

Compound	inhibition of Met-enkephalinase activity (Met-enkephalin degradation) [1]	protection of Met-enkephalin from degradation [2]	reversal of the sialorphin-effect on behavioural parameters of noxious response [3, 4]	reversal of the sialorphin-effect on time in central area [3, 4]	reversal of the sialorphin-effect on vocalisation parameter [3, 4]	time in the central area of the open-field ([3]; sialorphin plus naloxone 0.3 mg/kg s.c. 15 min before sialorphin)
CC(C)C[C@H](NP(=O)(O)O[C@@H]1O[C@@H](C)[C@H](O)[C@@H](O)[C@H]1O)C(=O)N[C@@H](Cc1c[nH]c2ccccc12)C(=O)O [Phosphoramidon, reference compound]	complete inhibition	96%				
O=C(O)CNC(=O)C(CS)Cc1ccccc1 (stereo not shown) [Thiorphan]		100%				
C=CCN1CC[C@]23c4c5ccc(O)c4O[C@H]2C(=O)CC[C@@]3(O)[C@H]1C5 [naloxone, reference compound]			42-63%	56%	20%	112.38 ± 17.44 s
